pEC50: −log10 of the molar value. Non-standard residues stand in square brackets, D forms with d. Residues, ends and D or L forms follow the SMILES beside them. Phe(4-Cl) = N[C@@H](Cc1ccc(Cl)cc1)C(=O)O; 2Nal = N[C@@H](Cc1ccc2ccccc2c1)C(=O)O

This note sets out measurements from ChEMBL document CHEMBL1141655, “Structure-activity relationships of Bak derived peptides: affinity and specificity modulations by amino acid replacement” (Eur J Med Chem, 2008).

For this experiment, the target named is Bcl-2-like protein 1 (Homo sapiens, UniProt Q07817). The experiment is described as follows: Binding affinity to recombinant Bcl-XL expressed in Escherichia coli BL21 by fluorescence polarization assay. (Polarisation of emitted light reports the rotation of a fluorescent probe.)
Chain of Bcl-2-like protein 1 (Q07817 whole entry): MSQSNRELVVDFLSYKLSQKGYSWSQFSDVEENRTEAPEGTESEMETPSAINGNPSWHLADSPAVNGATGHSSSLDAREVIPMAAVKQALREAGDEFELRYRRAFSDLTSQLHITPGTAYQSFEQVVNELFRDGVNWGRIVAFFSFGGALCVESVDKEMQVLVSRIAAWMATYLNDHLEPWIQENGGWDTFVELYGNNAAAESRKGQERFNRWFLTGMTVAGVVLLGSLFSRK

As a reminder, the pEC50 is −log10 of the EC50, conventionally taken in molar units. Take `CC[C@H](C)[C@H](NC(=O)[C@H](C)NC(=O)[C@H](CC(C)C)NC(=O)[C@H](CCC(N)=O)NC(=O)[C@H](CCCN=C(N)N)NC(=O)CNC(=O)[C@@H](NC(=O)[C@H](CCC(N)=O)NC(=O)CN)C(C)C)C(=O)N[C@H](C(=O)NCC(=O)N[C@@H](CC(=O)O)C(=O)N[C@@H](CC(=O)O)C(=O)N[C@@H](C)C(=O)N[C@@H](CC(N)=O)C(=O)N[C@@H](CCCN=C(N)N)C(=O)O)[C@@H](C)CC`: the pEC50 was 4.03.
On to `CC[C@H](C)[C@H](NC(=O)[C@H](C)NC(=O)[C@H](Cc1ccc2ccccc2c1)NC(=O)[C@H](CCC(N)=O)NC(=O)[C@H](CCCNC(=N)N)NC(=O)CNC(=O)[C@@H](NC(=O)[C@H](CCC(N)=O)NC(=O)CN)C(C)C)C(=O)N[C@H](C(=O)NCC(=O)N[C@@H](CC(=O)O)C(=O)N[C@@H](CC(=O)O)C(=O)N[C@@H](Cc1ccc(Cl)cc1)C(=O)N[C@@H](CC(N)=O)C(=O)N[C@@H](CCCNC(=N)N)C(=O)O)[C@@H](C)CC` (H-GQVGRQ[2Nal]AIIGDD[Phe(4-Cl)]NR-OH), for which the pEC50 was 7.28.
Then `CC[C@H](C)[C@H](NC(=O)[C@H](C)NC(=O)[C@H](Cc1cccnc1)NC(=O)[C@H](CCC(N)=O)NC(=O)[C@H](CCCN=C(N)N)NC(=O)CNC(=O)[C@@H](NC(=O)[C@H](CCC(N)=O)NC(=O)CN)C(C)C)C(=O)N[C@H](C(=O)NCC(=O)N[C@@H](CC(=O)O)C(=O)N[C@@H](CC(=O)O)C(=O)N[C@H](C(=O)N[C@@H](CC(N)=O)C(=O)N[C@@H](CCCN=C(N)N)C(=O)O)[C@@H](C)CC)[C@@H](C)CC`, with 5.01; and `CC[C@H](C)[C@H](NC(=O)[C@H](C)NC(=O)[C@H](CC(C)C)NC(=O)[C@H](CCC(N)=O)NC(=O)[C@H](CCCNC(=N)N)NC(=O)CNC(=O)[C@@H](NC(=O)[C@H](CCC(N)=O)NC(=O)CN)C(C)C)C(=O)N[C@@H](C)C(=O)NCC(=O)N[C@@H](CC(=O)O)C(=O)N[C@@H](CC(=O)O)C(=O)N[C@H](C(=O)N[C@@H](CC(N)=O)C(=O)N[C@@H](CCCNC(=N)N)C(=O)O)[C@@H](C)CC`, with 4.77.
Take `CC[C@H](C)[C@H](NC(=O)[C@H](C)NC(=O)[C@H](CC(C)C)NC(=O)[C@H](CCC(N)=O)NC(=O)[C@H](CCCN=C(N)N)NC(=O)CNC(=O)[C@@H](NC(=O)[C@H](CCC(N)=O)NC(=O)CN)C(C)C)C(=O)N[C@H](C(=O)NCC(=O)N[C@@H](CC(=O)O)C(=O)N[C@@H](CC(=O)O)C(=O)N[C@@H](Cc1ccc(I)cc1)C(=O)N[C@@H](CC(N)=O)C(=O)N[C@@H](CCCN=C(N)N)C(=O)O)[C@@H](C)CC`: the pEC50 was 7.35.
With `CC[C@H](C)[C@H](NC(=O)[C@H](C)NC(=O)[C@H](CC(C)C)NC(=O)[C@H](CCC(N)=O)NC(=O)[C@H](CCCN=C(N)N)NC(=O)CNC(=O)[C@@H](NC(=O)[C@H](CCC(N)=O)NC(=O)CN)C(C)C)C(=O)N[C@@H](Cc1ccc2ccccc2c1)C(=O)NCC(=O)N[C@@H](CC(=O)O)C(=O)N[C@@H](CC(=O)O)C(=O)N[C@H](C(=O)N[C@@H](CC(N)=O)C(=O)N[C@@H](CCCN=C(N)N)C(=O)O)[C@@H](C)CC` the figure was 5.89; with `CC[C@H](C)[C@H](NC(=O)[C@H](C)NC(=O)[C@H](CC(C)C)NC(=O)[C@H](CCC(N)=O)NC(=O)[C@H](CCCNC(=N)N)NC(=O)CNC(=O)[C@@H](NC(=O)[C@H](CCC(N)=O)NC(=O)CN)C(C)C)C(=O)N[C@@H](Cc1ccc([N+](=O)[O-])cc1)C(=O)NCC(=O)N[C@@H](CC(=O)O)C(=O)N[C@@H](CC(=O)O)C(=O)N[C@H](C(=O)N[C@@H](CC(N)=O)C(=O)N[C@@H](CCCNC(=N)N)C(=O)O)[C@@H](C)CC`, 5.83; with `CC[C@H](C)[C@H](NC(=O)[C@H](C)NC(=O)[C@H](CC(C)C)NC(=O)[C@H](CCC(N)=O)NC(=O)[C@H](CCCN=C(N)N)NC(=O)CNC(=O)[C@H](Cc1ccccc1)NC(=O)[C@H](CCC(N)=O)NC(=O)CN)C(=O)N[C@H](C(=O)NCC(=O)N[C@@H](CC(=O)O)C(=O)N[C@@H](CC(=O)O)C(=O)N[C@H](C(=O)N[C@@H](CC(N)=O)C(=O)N[C@@H](CCCN=C(N)N)C(=O)O)[C@@H](C)CC)[C@@H](C)CC`, 6.52.
Take `CC[C@H](C)[C@H](NC(=O)[C@H](C)NC(=O)[C@H](CC(C)C)NC(=O)[C@H](CCC(N)=O)NC(=O)[C@H](CCCN=C(N)N)NC(=O)CNC(=O)[C@@H](NC(=O)[C@H](CCC(N)=O)NC(=O)CN)C(C)C)C(=O)N[C@@H](Cc1cccc2ccccc12)C(=O)NCC(=O)N[C@@H](CC(=O)O)C(=O)N[C@@H](CC(=O)O)C(=O)N[C@H](C(=O)N[C@@H](CC(N)=O)C(=O)N[C@@H](CCCN=C(N)N)C(=O)O)[C@@H](C)CC`: the pEC50 was 6.52.
With `CC[C@H](C)[C@H](NC(=O)[C@H](CC(=O)O)NC(=O)[C@H](CC(=O)O)NC(=O)CNC(=O)[C@H](Cc1ccc(O)cc1)N(C)C(=O)[C@@H](NC(=O)[C@H](C)NC(=O)[C@H](CC(C)C)NC(=O)[C@H](CCC(N)=O)NC(=O)[C@H](CCCNC(=N)N)NC(=O)CNC(=O)[C@@H](NC(=O)[C@H](CCC(N)=O)NC(=O)CN)C(C)C)[C@@H](C)CC)C(=O)N[C@@H](CC(N)=O)C(=O)N[C@@H](CCCNC(=N)N)C(=O)O`, the pEC50 was 5.44.
Take `CC[C@H](C)[C@H](NC(=O)[C@H](C)NC(=O)[C@H](CC(C)C)NC(=O)[C@H](CCC(N)=O)NC(=O)[C@H](CCCNC(=N)N)NC(=O)CNC(=O)[C@@H](NC(=O)[C@H](CCC(N)=O)NC(=O)CN)C(C)C)C(=O)N[C@H](C(=O)NCC(=O)N[C@@H](CC(=O)O)C(=O)N[C@@H](CC(=O)O)C(=O)N[C@@H](CC1CCCCC1)C(=O)N[C@@H](CC(N)=O)C(=O)N[C@@H](CCCNC(=N)N)C(=O)O)[C@@H](C)CC`: the pEC50 was 7.24.
Then `CC[C@H](C)[C@H](NC(=O)[C@H](C)NC(=O)[C@H](Cc1cccc2ccccc12)NC(=O)[C@H](CCC(N)=O)NC(=O)[C@H](CCCNC(=N)N)NC(=O)CNC(=O)[C@@H](NC(=O)[C@H](CCC(N)=O)NC(=O)CN)C(C)C)C(=O)N[C@H](C(=O)NCC(=O)N[C@@H](CC(=O)O)C(=O)N[C@@H](CC(=O)O)C(=O)N[C@H](C(=O)N[C@@H](CC(N)=O)C(=O)N[C@@H](CCCNC(=N)N)C(=O)O)[C@@H](C)CC)[C@@H](C)CC`, with under 5.00; and `CC[C@H](C)[C@H](NC(=O)[C@H](C)NC(=O)[C@H](CC(C)C)NC(=O)[C@H](CCC(N)=O)NC(=O)[C@H](CCCNC(=N)N)NC(=O)CNC(=O)[C@@H](NC(=O)[C@H](CCC(N)=O)NC(=O)CN)C(C)C)C(=O)N[C@H](C(=O)NCC(=O)N[C@@H](CC(=O)O)C(=O)N[C@@H](CC(=O)O)C(=O)N[C@@H](CCC(=O)O)C(=O)N[C@@H](CC(N)=O)C(=O)N[C@@H](CCCNC(=N)N)C(=O)O)[C@@H](C)CC`, with under 5.00.
Regarding `CCCC[C@H](NC(=O)[C@H](CC(=O)O)NC(=O)[C@H](CC(=O)O)NC(=O)CNC(=O)[C@@H](NC(=O)[C@@H](NC(=O)[C@H](C)NC(=O)[C@H](CC(C)C)NC(=O)[C@H](CCC(N)=O)NC(=O)[C@H](CCCN=C(N)N)NC(=O)CNC(=O)[C@@H](NC(=O)[C@H](CCC(N)=O)NC(=O)CN)C(C)C)[C@@H](C)CC)[C@@H](C)CC)C(=O)N[C@@H](CC(N)=O)C(=O)N[C@@H](CCCN=C(N)N)C(=O)O`, the pEC50 is 6.93.
